Data published in article PMC8110578, “Phenylethynylbenzyl-modified biguanides inhibit pancreatic cancer tumor growth” (Scientific Reports, 2021).

How the values were obtained:
[1] = system: NB508 mouse pancreatic ductal adenocarcinoma cells; experiment: In vitro growth inhibition screen at 5 µM, NB508 cells; format: cell-based; settings: 72 h at 37 °C
Text: Figure 1 (A) Structure and crystal packing of previously studied PEB-disubstituted (A.1) and monosubstituted (A.2 and A.3) benzimidazolium salts. Compound A.1 is an efficient chloride transporter forming channels and generating holes in bacterial membranes and red blood cellular membranes. Compound A.2 penetrates phospholipid membranes but is less efficient as ion transporter as it forms more compact aggregates; its toxicity on RBC is lower than compound A.1. The replacement of the phenyl group with a methyl group in compound A.3 results in the formation of even more compact aggregates with even lower toxicity on RBC. (B) Structure of PEB-substituted biguanidium salts. For each biguanide we prepared three series of biguanidium salts with different counterions. (C) Synthesis of 4-(phenylethynyl)benzylbiguanide 1 and 4-(phenylethyl)benzylbiguanide 2; (a) Phenylacetylene, PdCl2PPh3, CuI, PPh3, Et3N, THF, 70 °C, o.n. (b) NaCN(BH3)3, EtOHNH4OAc sat./NH3, 80 °C, o.n (c) Dicyandiamide, TMSCl, THFanh., 145 °C, 1 h (d) Pd/C 10%, H2, EtOH/AcOEt, 60 °C, 2 h. (D) Synthesis of 4-(phenylethynylphenyl)biguanidium 3 and 4-(phenylethylphenyl)biguanidium 4 (a) (1) Boc2O, THF, 2 h, (2) Phenylacetylene, PdCl2PPh3, CuI, PPH3, Et3N, THF, 70°, o.n. (b) TFA, DCM, 60 °C, 2 h (c) Dicyandiamide, TMSCl, THFanh, 145 °C, 1 h (d) Pd/C 10%, H2, EtOH/AcOEt, 60 °C, 2 h. The NMR spectra of the synthesized compounds are given in Supplementary Figs. S1–S24. (E) Relative growth of NB508 mouse pancreatic ductal adenocarcinoma cells and IMR90 fibroblasts exposed to 5 µM of PEB-biguanidium salts. Cells were incubated for 72 h at 37 °C. Errors bars represent the standard error of the mean (SEM), *p < 0.05, **p < 0.01, Student’s t test. (F) Crystal structure of 1b showing its self-assembly in the solid state. Crystal data is available in Supplementary Tables S1–S8 and crystal packing in Supplementary Fig. S25. TEXT PRINTED IN THE PICTURE: (A) A.1: HC50: 0.15 mM | (A) A.2: HC50: 1 mM | (A) A.3: HC50: 150 mM
NB508 is an aggressive pro-metastatic pancreatic cancer cell line that we used previously to study the role of mitochondria in pancreatic cancer. […].

KP4 cells = experiment: Mitochondrial morphology by anti-TOMM20 immunofluorescence, KP4 cells; format: cell-based, human; settings: 24 h, 1b 15µM, metformin 5mM
Protocol: The action of biguanides in mitochondria can lead to morphological alterations that include disorganisation of the cristae. […].  Figure 4 Effects of biguanides on mitochondrial morphology. (A) Mitochondrial morphology in KP4 cells 24 h following the indicated treatments as visualised by anti-TOMM20 immunofluorescence. Scale bar = […]. […] The data represents the mean of 2 biological replicates and for each replicate three counts of 50 cells were done. n = 300 cells per treatment. Data was analyzed with one way ANOVA followed by Tukey HSD test.
Experimental. KP-4 cells were seeded at 50% confluency on slides in 6-well plates. […] After 24h of treatment, cells were washed twice with PBS1X then were fixed during 10 minutes at 4°C with 4% paraformaldehyde. Cells were washed again three times with PBS1X then permeabilized during 5 min in PBS1X, 2%BSA, 0,2%Triton X-100. Slides were washed three times 10 minutes with 1XPBS, 2%BSA, then incubated overnight with primary antibody anti-TOMM20 (Rabbit, 1:150, Santa Cruz, sc-11415) diluted in 1XPBS, 2%BSA. Slides were washed three times 10 minutes with 1XPBS, 2%BSA then incubated 1 hour at RT with anti-Rabbit-AlexaFluor568 secondary antibody (Goat, 1:1000, ThermoFisher Scientific). Cells were washed four times 10 minutes with 1XPBS then mounted with Vectashield mouting media containing DAPI (Vector laboratories H-1200). […]

Row | Structure (SMILES) | Growth inhibition of NB508 cells [1] | Effect on mitochondrial morphology (KP4 cells)
1 | N=C(N)NC(=N)NCc1ccc(C#Cc2ccccc2)cc1 [1b, 4-(phenylethynyl)benzylbiguanide] | most important antiproliferative activities | punctuated pattern typical of fragmented mitochondria
2 | CN(C)C(=N)NC(=N)N [metformin, 1,1-dimethylbiguanide, reference compound] | no effect was observed | loss of the filamentous mitochondrial network
